Values after ≈ are worked out from the molar mass of the structure shown.
Legend:
[1] = test system: Proteus vulgaris; assay: Antibacterial activity, dilution method: Proteus vulgaris; format: cell-based; conditions: Difco bacto-peptone medium
Protocol: (§1) The tests were carried out according to the dilution method.
(§2) To determine the activity against Staphylococcus, Proteus vulgaris, Klebsiella pneumoniae and Escherichia coli, use was made of Difco bacto-peptone medium, and nutrient broth T was used to investigate the activity against Pneumococcus.

[2] = test system: gram-positive germs; assay: Antibacterial activity, dilution method: gram-positive germs (summary); format: cell-based; conditions: in words
Protocol: as §1, §2

[3] = test system: Escherichia coli; assay: Antibacterial activity, dilution method: Escherichia coli; format: cell-based; conditions: Difco bacto-peptone medium
Protocol: as §1, §2

[4] = Acute toxicity, Karber and Behrens method, female IFFA-CREDO mice; conditions: mouse, in vivo
Protocol: Acute toxicity was determined by the intravenous and oral routes, using the Karber and Behrens method, in mice female IFFA-CREDO weighing 20 g (10 mice per dosage level).

[5] = test system: Streptococcus pyrogenes 5625; assay: Antibacterial activity, dilution method: Streptococcus pyrogenes 5625; format: cell-based
Protocol: as §1, §2

[6] = test system: Klebsiella pneumoniae; assay: Antibacterial activity, dilution method: Klebsiella pneumoniae; format: cell-based; conditions: Difco bacto-peptone medium
Protocol: as §1, §2

[7] = test system: Diplococcus pneumoniae 692; assay: Antibacterial activity, dilution method: Diplococcus pneumoniae 692; format: cell-based; conditions: for MIC: Streptococcus pneumoniae, 692, nutrient broth T
Protocol: as §1, §2

[8] = Solubility in physiological saline solution; format: physicochemical
[9] = test system: Staphylococcus pyogenes aureus Oxford; assay: Antibacterial activity, dilution method: Staphylococcus pyogenes aureus Oxford; format: cell-based; conditions: Difco bacto-peptone medium
Protocol: as §1, §2

[10] = Sensitivity to light and air; format: physicochemical

| Compound | MIC [1] | activity against gram-positive germs [2] | MIC [3] | LD50 ([4]; iv) | LD50 ([4]; po) | MIC [5] | MIC [6] | MIC [7] | activity against Diplococcus pneumoniae ([7]; in words) | solubility in physiological saline solution [8] | MIC [9] | sensitivity to light and air [10] |
| --- | --- | --- | --- | --- | --- | --- | --- | --- | --- | --- | --- | --- |
| CC1CC=C(c2ccc(O)c(S(=O)(=O)O)c2)C(C(C)C)C1 (stereo not shown) [LJ 2148, sodium m.menthene-phenol-2-sulfonate] | > 1000 µg/mL | active against gram-positive germs | > 1000 µg/mL | 305 mg/kg | 2900 mg/kg | 10 µg/mL | > 1000 µg/mL | 3 µg/mL | particularly active against Diplococcus pneumoniae | soluble in physiological saline solution | 28 µg/mL | – |
| Cc1c(C2=CCC(C)CC2C(C)C)cc(C(C)C)c(O)c1S(=O)(=O)O (stereo not shown) [LJ 2128, m.menthene-thymol-2-sulfonate] | > 1000 µg/mL | active against gram-positive germs | > 1000 µg/mL | 125 mg/kg | 1920 mg/kg | 16 µg/mL (≈ 43.7 µM) | > 1000 µg/mL | 12 µg/mL (≈ 32.7 µM) | – | soluble in physiological saline solution, giving a clear solution | 140 µg/mL (≈ 382 µM) | – |
| CC1CC=C(c2ccc(O)cc2)C(C(C)C)C1 (stereo not shown) [m.menthene-phenol, 4-(3'-m.menthen-4'-yl)-phenol] | – | – | – | – | – | – | – | – | – | – | – | highly sensitive to light and air |

From patent US4054669A, “Phenolic menthene derivatives, therapeutic composition containing same and their use as therapeutic compositions” (Les Derives Resiniques et Terpeniques, priority 1975, dated 1977)
